{"source": "paper PMC5854708", "about": "“Grass Carp Prolactin Gene: Structural Characterization and Signal Transduction for PACAP-induced Prolactin Promoter Activity” (Scientific Reports, 2018)", "origin": "cited, not measured here", "test_system": "PRL secretion / PRL mRNA in grass carp pituitary cells", "conditions": "cited from earlier work", "excerpt": "In carp model, PACAP nerve fibers can be identified in anterior pituitary overlapping with the distribution of lactotrophs. Furthermore, PAC1 receptors could be detected in grass carp lactotrophs."}
{"substance": "pituitary adenylate cyclase-activating peptide [PACAP]", "values": [{"measurement": "PRL mRNA expression", "value": "up-regulated"}, {"measurement": "PRL secretion", "value": "up-regulated"}]}
